Experimental data: patent US12146004B2, “Polymyxin compounds and uses thereof” (priority 2014, dated 2024)
Values after ≈ are worked out from the molar mass of the structure shown. Bridge positions count the residues as written; N and C are the ends. Square brackets hold non-standard residues; d marks the D form. Peptide text beside a SMILES is read from it. * marks the point of attachment. ξ: configuration not given here. dBip = N[C@H](Cc1ccc(-c2ccccc2)cc1)C(=O)O; dPhe(4-Br) = N[C@H](Cc1ccc(Br)cc1)C(=O)O; Gly(octyl) = CCCCCCCC[C@H](N)C(=O)O; Octanoyl(6-Me) = CCC(C)CCCCC(=O)*; Thr(3ξ) = CC(O)[C@H](N)C(=O)O; X1 = CC(C)CN1CCNC[C@H]1C(=O)*; Octanoyl = CCCCCCCC(=O)*; Dab = NCC[C@H](N)C(=O)O; X6 = CCCCCCC(CCN)C(=O)*; Dap = NC[C@H](N)C(=O)O; X18 = CCCCC(CCN)C(=O)*

Tests used:
Format in all cases: cell-based
[1] = test system: Escherichia coli, Pseudomonas aeruginosa, Klebsiella pneumoniae and Acinetobacter baumannii; assay: Susceptibility testing, comparisons in words across the Gram negative pathogens; settings: for activity against polymyxin resistant strains: versus comparator compound
Method: To evaluate the potency and spectrum of the compounds, susceptibility testing was performed against up to nine strains of each of the Gram negative pathogens, Escherichia coli, Pseudomonas aeruginosa, Klebsiella pneumoniae and Acinetobacter baumannii.

Acinetobacter baumannii = test system: Acinetobacter baumannii
Method in brief: (§1)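 Values are minimum inhibitory concentrations in μg/mL, measured across a panel of up to nine strains of each Gram-negative pathogen, some Polymyxin-elevated or resistant.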

Klebsiella pneumoniae = test system: Klebsiella pneumoniae
Method in brief: as §1

Pseudomonas aeruginosa = test system: Pseudomonas aeruginosa
Method in brief: as §1

Escherichia coli = test system: Escherichia coli
Method in brief: as §1

HK-2 cells = test system: HK-2 cells
Excerpt: Values are reported relative to Polymyxin B.

Row | SMILES | activity against polymyxin resistant strains [1] | MIC A. baumanii 053 (Acinetobacter baumannii) [µg/mL] | MIC A. baumanii 056 (Acinetobacter baumannii) [µg/mL] | MIC A. baumanii ATCC BAA-747 (Acinetobacter baumannii) [µg/mL] | MIC K. pneumoniae 063 (Klebsiella pneumoniae) [µg/mL] | MIC K. pneumoniae 064 (Klebsiella pneumoniae) [µg/mL] | MIC K. pneumoniae 065 (Klebsiella pneumoniae) [µg/mL] | MIC K. pneumoniae 066 (Klebsiella pneumoniae) [µg/mL] | MIC K. pneumoniae 067 (Klebsiella pneumoniae) [µg/mL] | MIC K. pneumoniae ATCC 4352 (Klebsiella pneumoniae) [µg/mL] | MIC P. aeruginosa 068 (Pseudomonas aeruginosa) [µg/mL] | MIC P. aeruginosa 070 (Pseudomonas aeruginosa) [µg/mL] | MIC P. aeruginosa ATCC 27853 (Pseudomonas aeruginosa) [µg/mL] | MIC E. coli 058 (Escherichia coli) [µg/mL] | MIC E. coli 059 (Escherichia coli) [µg/mL] | MIC E. coli 060 (Escherichia coli) [µg/mL] | MIC E. coli 061 (Escherichia coli) [µg/mL] | MIC E. coli ATCC 25922 (Escherichia coli) [µg/mL] | HK-2 IC50 (HK-2 cells) [µg/mL] | MIC A. baumanii NCTC 13424 (Acinetobacter baumannii) [µg/mL] | also measured
1 | CC(C)CC1CNCC(C(=O)N[C@H](C(=O)N[C@@H](CN)C(=O)N[C@H]2CCNC(=O)[C@H]([C@@H](C)O)NC(=O)[C@H](CCN)NC(=O)[C@H](CCN)NC(=O)[C@H](CC(C)C)NC(=O)[C@@H](Cc3ccc(-c4ccccc4)cc3)NC(=O)[C@H](CCN)NC2=O)C(C)O)C1 (single isomer, unassigned; isomer 2) [Example 4, (trans-5-(isobutyl-piperidine)-3-carbonyl L-Thr-L-Dap-polymyxin [D-(4-phenyl)Phe]-6]heptapeptide. Isomer 2] | significantly improves of activity against resistant strains | 2 (≈ 1.68 µM) | 0.5 (≈ 0.419 µM) | 0.5 (≈ 0.419 µM) | 4 (≈ 3.35 µM) | 2 (≈ 1.68 µM) | 1 (≈ 0.839 µM) | 1 (≈ 0.839 µM) | 8 (≈ 6.71 µM) | 0.5 (≈ 0.419 µM) | 1 (≈ 0.839 µM) | 2 (≈ 1.68 µM) | 1 (≈ 0.839 µM) | 0.5 (≈ 0.419 µM) | 0.5 (≈ 0.419 µM) | 0.5 (≈ 0.419 µM) | 2 (≈ 1.68 µM) | 0.5 (≈ 0.419 µM) | 32 |  | 
2 | CCC(C)CCCCC(=O)N[C@@H](CCN)C(=O)N[C@H](C(=O)N[C@@H](CCN)C(=O)N[C@H]1CCNC(=O)[C@H]([C@@H](C)O)NC(=O)[C@H](CCN)NC(=O)[C@H](CCN)NC(=O)[C@H](CC(C)C)NC(=O)[C@@H](Cc2ccc(Br)cc2)NC(=O)[C@H](CCN)NC1=O)C(C)O (stereo partly drawn) [Example 2, Polymyxin B[D-(4-bromoPhe)]-6]] ({Octanoyl(6-Me)}-[Dab][Thr(3ξ)][Dab][Dab][Dab][dPhe(4-Br)]L[Dab][Dab]T; lactam 4-C) | enhances activity against polymyxin resistant strains | 16 (≈ 12.5 µM) | 4 (≈ 3.12 µM) | 2 (≈ 1.56 µM) | 16 (≈ 12.5 µM) | 2 (≈ 1.56 µM) | 0.5 (≈ 0.39 µM) | 4 (≈ 3.12 µM) | 16 (≈ 12.5 µM) | 1 (≈ 0.78 µM) | 2 (≈ 1.56 µM) | 4 (≈ 3.12 µM) | 1 (≈ 0.78 µM) | 2 (≈ 1.56 µM) | 1 (≈ 0.78 µM) | 2 (≈ 1.56 µM) | 4 (≈ 3.12 µM) | 2 (≈ 1.56 µM) |  |  | MIC K. pneumoniae 062 (Klebsiella pneumoniae): 8 µg/mL (≈ 6.24 µM)
3 | CC(C)C[C@@H]1NC(=O)[C@@H](Cc2ccc(-c3ccccc3)cc2)NC(=O)[C@H](CCN)NC(=O)[C@@H](NC(=O)[C@H](CN)NC(=O)[C@@H](NC(=O)[C@@H]2CNCCN2CC(C)C)C(C)O)CCNC(=O)[C@H]([C@@H](C)O)NC(=O)[C@H](CCN)NC(=O)[C@H](CCN)NC1=O (some centres unmarked) [Example 5] (X1-[Thr(3ξ)][Dap][Dab][Dab][dBip]L[Dab][Dab]T; lactam 3-C) | significantly improves of activity against resistant strains | 32 (≈ 26.8 µM) | 4 (≈ 3.35 µM) | 0.125 (≈ 0.105 µM) | 16 (≈ 13.4 µM) | 4 (≈ 3.35 µM) | 0.5 (≈ 0.419 µM) | 8 (≈ 6.7 µM) | 32 (≈ 26.8 µM) | 0.25 (≈ 0.209 µM) | 4 (≈ 3.35 µM) | 8 (≈ 6.7 µM) | 0.5 (≈ 0.419 µM) | 1 (≈ 0.838 µM) | 1 (≈ 0.838 µM) | 2 (≈ 1.68 µM) | 8 (≈ 6.7 µM) | 0.06 (≈ 0.0503 µM) | 36 |  | 
4 | CCC(C)CCCCC(=O)N[C@@H](CCN)C(=O)N[C@H](C(=O)N[C@@H](CCN)C(=O)N[C@H]1CCNC(=O)[C@H]([C@@H](C)O)NC(=O)[C@H](CCN)NC(=O)[C@H](CCN)NC(=O)[C@H](CC(C)C)NC(=O)[C@@H](Cc2ccc(-c3ccccc3)cc2)NC(=O)[C@H](CCN)NC1=O)C(C)O (some centres unmarked) [Example C3, reference compound] ({Octanoyl(6-Me)}-[Dab][Thr(3ξ)][Dab][Dab][Dab][dBip]L[Dab][Dab]T; lactam 4-C) |  | 16 (≈ 12.5 µM) | 16 (≈ 12.5 µM) | 1 (≈ 0.781 µM) | 8 (≈ 6.25 µM) | 4 (≈ 3.13 µM) | 0.5 (≈ 0.391 µM) | 4 (≈ 3.13 µM) | 32 (≈ 25 µM) | 0.5 (≈ 0.391 µM) | 2 (≈ 1.56 µM) | 4 (≈ 3.13 µM) | 1 (≈ 0.781 µM) | 2 (≈ 1.56 µM) | 1 (≈ 0.781 µM) | 4 (≈ 3.13 µM) | 8 (≈ 6.25 µM) | 0.5 (≈ 0.391 µM) | 3 |  | MIC K. pneumoniae 062 (Klebsiella pneumoniae): 32 µg/mL (≈ 25 µM)
5 | CCCCC(CCN)C(=O)N[C@H](C(=O)N[C@@H](CCN)C(=O)N[C@H]1CCNC(=O)[C@H]([C@@H](C)O)NC(=O)[C@H](CCN)NC(=O)[C@H](CCN)NC(=O)[C@H](CC(C)C)NC(=O)[C@@H](Cc2ccccc2)NC(=O)[C@H](CCN)NC1=O)C(C)O (some centres unmarked) [Example C4, 2-(2-Aminoethyl) hexanoyl polymyxin B nonapeptide, reference compound] (X18-[Thr(3ξ)][Dab][Dab][Dab][dF]L[Dab][Dab]T; lactam 3-C) |  |  |  | 1 (≈ 0.905 µM) |  |  | >64 |  |  | 0.25 (≈ 0.226 µM) |  |  | 1 (≈ 0.905 µM) | >64 |  |  |  | 1.0 (≈ 0.905 µM) |  | 0.5 (≈ 0.453 µM) | activity [1]: only moderate activity; MIC K. pneumoniae ATCC 13882 (Klebsiella pneumoniae): 1 µg/mL (≈ 0.905 µM); MIC P. aeruginosa CCUG 59347 (Pseudomonas aeruginosa): 2 µg/mL (≈ 1.81 µM)
6 | CCCCCCC(CCN)C(=O)N[C@H](C(=O)N[C@@H](CCN)C(=O)N[C@H]1CCNC(=O)[C@H]([C@@H](C)O)NC(=O)[C@H](CCN)NC(=O)[C@H](CCN)NC(=O)[C@H](CC(C)C)NC(=O)[C@@H](Cc2ccccc2)NC(=O)[C@H](CCN)NC1=O)C(C)O (some centres unmarked) [Example C5, 2-(2-Aminoethyl) octanoyl polymyxin B nonapeptide, reference compound] (X6-[Thr(3ξ)][Dab][Dab][Dab][dF]L[Dab][Dab]T; lactam 3-C) |  | >64 | 16 (≈ 14.1 µM) | 0.125 (≈ 0.11 µM) | 8 (≈ 7.06 µM) |  | 1 (≈ 0.883 µM) |  |  | 0.06 (≈ 0.053 µM) | 8 (≈ 7.06 µM) | 32 (≈ 28.3 µM) | 0.125 (≈ 0.11 µM) | 2 (≈ 1.77 µM) |  |  | 16 (≈ 14.1 µM) | 0.06 (≈ 0.053 µM) | 29 | 0.25 (≈ 0.221 µM) | MIC K. pneumoniae ATCC 13882 (Klebsiella pneumoniae): 0.125 µg/mL (≈ 0.11 µM); MIC P. aeruginosa CCUG 59347 (Pseudomonas aeruginosa): 0.5 µg/mL (≈ 0.442 µM); MIC E. coli NCTC 9001 (Escherichia coli): 0.03 µg/mL (≈ 0.0265 µM)
7 | CCCCCCCC[C@@H]1NC(=O)[C@@H](Cc2ccccc2)NC(=O)[C@H](CCN)NC(=O)[C@@H](NC(=O)[C@H](CCN)NC(=O)[C@@H](NC(=O)[C@H](CCN)NC(=O)CCCCCCC)[C@@H](C)O)CCNC(=O)[C@H]([C@@H](C)O)NC(=O)[C@H](CCN)NC(=O)[C@H](CCN)NC1=O [Example C7, octanoyl-Dab-Thr-Dab-Cy[Dab-Dab-D-Phe-L-OctGly-Dab-Dab-Thr], reference compound] (Octanoyl-[Dab]T[Dab][Dab][Dab][dF][Gly(octyl)][Dab][Dab]T; lactam 4-C) |  |  |  | 1 (≈ 0.803 µM) |  |  | 2 (≈ 1.61 µM) |  |  |  |  |  | 0.5 (≈ 0.401 µM) | 2 (≈ 1.61 µM) |  |  |  | 1 (≈ 0.803 µM) |  | 1 (≈ 0.803 µM) | activity against polymyxin-susceptible strains ([1]; versus compounds in a more negative A Log P range): less active against polymyxin-susceptible strains; MIC A. baumannii CA053 (Acinetobacter baumannii): 4 µg/mL (≈ 3.21 µM); MIC A. baumannii CA056 (Acinetobacter baumannii): 4 µg/mL (≈ 3.21 µM); MIC K. pneumoniae ATCC 13882 (Klebsiella pneumoniae): 1 µg/mL (≈ 0.803 µM); MIC K. pneumoniae CA062 (Klebsiella pneumoniae): 16 µg/mL (≈ 12.8 µM); MIC K. pneumoniae CA063 (Klebsiella pneumoniae): 8 µg/mL (≈ 6.42 µM); MIC K. pneumoniae CA064 (Klebsiella pneumoniae): 4 µg/mL (≈ 3.21 µM); MIC K. pneumoniae CA066 (Klebsiella pneumoniae): 2 µg/mL (≈ 1.61 µM); MIC K. pneumoniae CA067 (Klebsiella pneumoniae): 64 µg/mL (≈ 51.4 µM); MIC K. pneumoniae N655 (Klebsiella pneumoniae): 8 µg/mL (≈ 6.42 µM); MIC P. aeruginosa CA068 (Pseudomonas aeruginosa): 4 µg/mL (≈ 3.21 µM); MIC P. aeruginosa CA070 (Pseudomonas aeruginosa): 2 µg/mL (≈ 1.61 µM); MIC P. aeruginosa CCUG 59347 (Pseudomonas aeruginosa): 2 µg/mL (≈ 1.61 µM); MIC E. coli CA059 (Escherichia coli): 2 µg/mL (≈ 1.61 µM); MIC E. coli CA060 (Escherichia coli): 2 µg/mL (≈ 1.61 µM); MIC E. coli CA061 (Escherichia coli): 4 µg/mL (≈ 3.21 µM)
